We go through 23 compounds from ChEMBL document CHEMBL1201862, “PubChem BioAssay data set” (2004).

Calls of active or inactive are those of the source.

Among the targets are Cytochrome P450 3A4 (Homo sapiens, UniProt P08684); Cytochrome P450 2C9 (Homo sapiens, UniProt P11712); Cytochrome P450 2D6 (Homo sapiens, UniProt P10635).
Data set [1] concerns the target Glyceraldehyde-3-phosphate dehydrogenase (Homo sapiens, UniProt P04406).
For data set [2], the target named is T1, Alkaline phosphatase, tissue-nonspecific isozyme (Homo sapiens, UniProt P05186).
T1 sequence (P05186 whole entry): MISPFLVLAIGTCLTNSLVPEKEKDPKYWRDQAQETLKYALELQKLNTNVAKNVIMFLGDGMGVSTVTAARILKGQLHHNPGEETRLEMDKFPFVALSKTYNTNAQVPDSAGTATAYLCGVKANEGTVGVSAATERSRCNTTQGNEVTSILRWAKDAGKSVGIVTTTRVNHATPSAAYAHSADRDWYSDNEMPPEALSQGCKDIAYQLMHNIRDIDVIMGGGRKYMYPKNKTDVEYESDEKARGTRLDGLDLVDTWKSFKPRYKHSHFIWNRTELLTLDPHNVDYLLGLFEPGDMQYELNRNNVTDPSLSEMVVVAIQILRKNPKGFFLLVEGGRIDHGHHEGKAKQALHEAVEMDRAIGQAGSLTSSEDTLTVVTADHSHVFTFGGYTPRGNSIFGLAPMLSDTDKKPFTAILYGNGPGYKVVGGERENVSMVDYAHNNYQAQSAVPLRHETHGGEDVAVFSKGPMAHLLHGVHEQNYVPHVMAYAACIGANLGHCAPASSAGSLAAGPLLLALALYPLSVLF
The data set is described as follows: potency against alkaline phosphatase TNAP – biochemical, luminescent, dose response, SAR follow-up (AID 1056).

The target in data set [3] is T2, High affinity choline transporter 1 (Homo sapiens, UniProt Q9GZV3).
T2 sequence (Q9GZV3 whole entry): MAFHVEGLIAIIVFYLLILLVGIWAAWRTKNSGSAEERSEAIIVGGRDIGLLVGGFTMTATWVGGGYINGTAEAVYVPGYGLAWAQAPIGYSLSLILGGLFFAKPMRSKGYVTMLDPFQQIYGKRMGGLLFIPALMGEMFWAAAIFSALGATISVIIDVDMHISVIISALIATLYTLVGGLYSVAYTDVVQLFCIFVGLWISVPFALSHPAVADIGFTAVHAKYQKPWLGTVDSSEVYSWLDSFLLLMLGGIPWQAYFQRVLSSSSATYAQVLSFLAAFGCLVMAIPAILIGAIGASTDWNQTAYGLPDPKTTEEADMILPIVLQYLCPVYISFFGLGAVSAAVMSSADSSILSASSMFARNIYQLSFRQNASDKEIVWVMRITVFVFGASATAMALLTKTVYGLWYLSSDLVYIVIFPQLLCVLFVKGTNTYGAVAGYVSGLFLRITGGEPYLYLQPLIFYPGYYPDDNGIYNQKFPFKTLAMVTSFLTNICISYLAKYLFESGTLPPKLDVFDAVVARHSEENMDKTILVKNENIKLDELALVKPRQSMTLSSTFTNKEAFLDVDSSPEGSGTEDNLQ
The data set is described as follows: human choline transporter blockers, potency – cell-based, 5-point CRC, membrane potential dye, dose response (AID 504840). The class given is functional.

Data set [4] concerns the target T3, Microphthalmia-associated transcription factor (Homo sapiens, UniProt O75030).
T3 sequence (O75030 whole entry): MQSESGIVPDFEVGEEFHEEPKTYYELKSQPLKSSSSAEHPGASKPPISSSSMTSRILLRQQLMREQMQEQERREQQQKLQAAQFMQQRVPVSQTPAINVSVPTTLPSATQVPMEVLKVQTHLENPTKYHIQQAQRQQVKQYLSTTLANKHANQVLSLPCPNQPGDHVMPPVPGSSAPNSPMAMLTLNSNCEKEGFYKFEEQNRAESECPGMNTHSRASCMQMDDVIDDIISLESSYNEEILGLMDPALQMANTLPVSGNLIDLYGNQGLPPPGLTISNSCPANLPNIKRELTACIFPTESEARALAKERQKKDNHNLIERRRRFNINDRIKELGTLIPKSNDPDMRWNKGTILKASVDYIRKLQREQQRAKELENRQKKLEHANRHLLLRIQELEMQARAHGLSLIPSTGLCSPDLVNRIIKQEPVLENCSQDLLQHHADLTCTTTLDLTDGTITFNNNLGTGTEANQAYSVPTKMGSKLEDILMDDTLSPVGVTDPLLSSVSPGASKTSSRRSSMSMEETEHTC
Description: reducers of TRPM1 reporter luminescence, concentration series – cell-based, SK-MEL-5, cherry-picked, set 3, MITF inhibitor project, dose response (AID 493073).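 Also: SK-MEL-5 melanoma cells with luciferase driven by the MITF target TRPM1 promoter.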 The class given is functional.

Another data set concerns Escherichia coli. The data set is described as follows: microbe, parasite or virus in culture.
Data set [5] addresses T4, Voltage-gated N-type calcium channel alpha-1B subunit/Amyloid beta A4 precursor protein-binding family A member 1 (Homo sapiens, UniProt Q00975+Q02410). The class given is protein assay.
The target of data set [6] is T4, Voltage-gated N-type calcium channel alpha-1B subunit/Amyloid beta A4 precursor protein-binding family A member 1. The class given is protein assay. The source holds these as a separate data set.
Another data set addresses Genome polyprotein (dengue virus type 2, UniProt P29990). Description: flavivirus cap methylation enzyme inhibition – biochemical, confirmation dose response, primary screen (AID 588689). The data set is classed as functional.
Data set [7] addresses T5, Rac GTPase-activating protein 1 (Homo sapiens, UniProt Q9H0H5).
T5 sequence (Q9H0H5 whole entry): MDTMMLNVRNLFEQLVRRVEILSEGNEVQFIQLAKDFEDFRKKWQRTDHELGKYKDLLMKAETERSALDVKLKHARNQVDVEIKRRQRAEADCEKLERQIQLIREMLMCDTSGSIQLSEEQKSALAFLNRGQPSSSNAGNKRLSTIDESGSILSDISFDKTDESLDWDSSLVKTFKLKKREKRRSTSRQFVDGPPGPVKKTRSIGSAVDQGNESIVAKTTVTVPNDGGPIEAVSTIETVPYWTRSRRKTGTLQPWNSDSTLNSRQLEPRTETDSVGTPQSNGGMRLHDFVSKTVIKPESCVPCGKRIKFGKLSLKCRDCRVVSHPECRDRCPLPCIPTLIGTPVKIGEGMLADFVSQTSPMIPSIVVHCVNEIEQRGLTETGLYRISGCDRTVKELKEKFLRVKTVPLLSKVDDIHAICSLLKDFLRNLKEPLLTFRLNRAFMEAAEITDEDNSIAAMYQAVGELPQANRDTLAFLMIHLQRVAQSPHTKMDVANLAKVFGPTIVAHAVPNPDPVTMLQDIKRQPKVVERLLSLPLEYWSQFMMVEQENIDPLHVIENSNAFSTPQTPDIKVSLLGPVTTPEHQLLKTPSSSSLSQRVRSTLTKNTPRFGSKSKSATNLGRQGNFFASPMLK
The data set is described as follows: blockers of MgcRacGAP-driven Rac1 GTP hydrolysis – biochemical, ADP Hunter fluorescence, primary and confirmatory, confirmation (AID 624330). The class given is functional.

Another data set concerns the target Nonstructural protein 1 (Influenza A virus, UniProt Q194T2). The data set is classed as functional, Influenza A virus (A/California/07/2009(H1N1)).
Data set [8] concerns the target Alkaline phosphatase, placental type (Homo sapiens, UniProt P05187). Description: human placental alkaline phosphatase inhibition – biochemical, luminescence, confirmation (AID 1512). The data set is classed as functional.
The target of the next data set is Cytochrome P450 2C19 (Homo sapiens, UniProt P33261). Description: Cytochrome panel assay with activity outcomes. Panel member name: p450-cyp2c19 Compounds with AC50 equal or less than 10 uM are considered active. The class given is functional. The conditions noted are these: read-out: AC50.

Sequence of Cytochrome P450 3A4 (P08684 whole entry): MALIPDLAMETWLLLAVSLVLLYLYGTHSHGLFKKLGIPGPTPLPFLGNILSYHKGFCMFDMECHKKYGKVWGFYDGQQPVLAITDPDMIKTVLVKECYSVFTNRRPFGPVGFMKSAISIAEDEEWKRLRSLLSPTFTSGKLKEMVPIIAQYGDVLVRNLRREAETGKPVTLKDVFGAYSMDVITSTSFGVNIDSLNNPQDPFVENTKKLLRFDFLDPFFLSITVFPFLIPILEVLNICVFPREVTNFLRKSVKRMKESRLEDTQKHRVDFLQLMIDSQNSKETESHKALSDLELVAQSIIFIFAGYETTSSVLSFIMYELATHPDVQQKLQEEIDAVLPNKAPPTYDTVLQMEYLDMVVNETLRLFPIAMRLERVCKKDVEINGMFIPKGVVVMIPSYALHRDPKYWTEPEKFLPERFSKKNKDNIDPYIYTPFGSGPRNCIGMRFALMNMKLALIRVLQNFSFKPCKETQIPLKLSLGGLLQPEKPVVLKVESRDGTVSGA
Sequence of Alkaline phosphatase, placental type (P05187 whole entry): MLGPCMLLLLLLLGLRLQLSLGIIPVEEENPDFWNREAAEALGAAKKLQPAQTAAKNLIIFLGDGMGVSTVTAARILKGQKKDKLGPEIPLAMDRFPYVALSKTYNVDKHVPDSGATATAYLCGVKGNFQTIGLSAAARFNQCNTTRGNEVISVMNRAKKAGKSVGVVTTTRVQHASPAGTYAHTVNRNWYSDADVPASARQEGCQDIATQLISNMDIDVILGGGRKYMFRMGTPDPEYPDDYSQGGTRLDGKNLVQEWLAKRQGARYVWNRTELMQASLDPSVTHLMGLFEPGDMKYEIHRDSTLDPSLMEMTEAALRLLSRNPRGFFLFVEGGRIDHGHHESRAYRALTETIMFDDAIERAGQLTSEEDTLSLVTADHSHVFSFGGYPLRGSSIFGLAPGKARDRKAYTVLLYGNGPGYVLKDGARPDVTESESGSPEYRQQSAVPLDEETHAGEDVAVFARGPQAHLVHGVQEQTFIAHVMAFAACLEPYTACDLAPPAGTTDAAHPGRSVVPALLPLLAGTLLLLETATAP
Sequence of Glyceraldehyde-3-phosphate dehydrogenase (P04406 whole entry): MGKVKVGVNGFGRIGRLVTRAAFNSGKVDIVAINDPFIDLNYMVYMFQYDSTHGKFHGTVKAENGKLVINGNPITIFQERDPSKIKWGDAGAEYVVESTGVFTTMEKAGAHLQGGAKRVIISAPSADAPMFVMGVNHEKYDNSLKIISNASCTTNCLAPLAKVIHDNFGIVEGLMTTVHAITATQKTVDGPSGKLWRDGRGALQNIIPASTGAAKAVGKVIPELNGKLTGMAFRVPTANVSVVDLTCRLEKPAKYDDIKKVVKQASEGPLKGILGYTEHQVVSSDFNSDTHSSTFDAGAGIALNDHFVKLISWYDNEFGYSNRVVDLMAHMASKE
Sequence of Nonstructural protein 1 (Q194T2 whole entry): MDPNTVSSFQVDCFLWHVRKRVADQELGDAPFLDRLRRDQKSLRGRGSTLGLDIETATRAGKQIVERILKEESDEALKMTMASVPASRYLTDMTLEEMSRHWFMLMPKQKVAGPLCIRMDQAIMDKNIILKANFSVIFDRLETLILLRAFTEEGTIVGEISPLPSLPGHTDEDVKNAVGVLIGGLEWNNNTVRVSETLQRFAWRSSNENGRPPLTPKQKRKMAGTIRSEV
T4 sequence (Q00975 whole entry): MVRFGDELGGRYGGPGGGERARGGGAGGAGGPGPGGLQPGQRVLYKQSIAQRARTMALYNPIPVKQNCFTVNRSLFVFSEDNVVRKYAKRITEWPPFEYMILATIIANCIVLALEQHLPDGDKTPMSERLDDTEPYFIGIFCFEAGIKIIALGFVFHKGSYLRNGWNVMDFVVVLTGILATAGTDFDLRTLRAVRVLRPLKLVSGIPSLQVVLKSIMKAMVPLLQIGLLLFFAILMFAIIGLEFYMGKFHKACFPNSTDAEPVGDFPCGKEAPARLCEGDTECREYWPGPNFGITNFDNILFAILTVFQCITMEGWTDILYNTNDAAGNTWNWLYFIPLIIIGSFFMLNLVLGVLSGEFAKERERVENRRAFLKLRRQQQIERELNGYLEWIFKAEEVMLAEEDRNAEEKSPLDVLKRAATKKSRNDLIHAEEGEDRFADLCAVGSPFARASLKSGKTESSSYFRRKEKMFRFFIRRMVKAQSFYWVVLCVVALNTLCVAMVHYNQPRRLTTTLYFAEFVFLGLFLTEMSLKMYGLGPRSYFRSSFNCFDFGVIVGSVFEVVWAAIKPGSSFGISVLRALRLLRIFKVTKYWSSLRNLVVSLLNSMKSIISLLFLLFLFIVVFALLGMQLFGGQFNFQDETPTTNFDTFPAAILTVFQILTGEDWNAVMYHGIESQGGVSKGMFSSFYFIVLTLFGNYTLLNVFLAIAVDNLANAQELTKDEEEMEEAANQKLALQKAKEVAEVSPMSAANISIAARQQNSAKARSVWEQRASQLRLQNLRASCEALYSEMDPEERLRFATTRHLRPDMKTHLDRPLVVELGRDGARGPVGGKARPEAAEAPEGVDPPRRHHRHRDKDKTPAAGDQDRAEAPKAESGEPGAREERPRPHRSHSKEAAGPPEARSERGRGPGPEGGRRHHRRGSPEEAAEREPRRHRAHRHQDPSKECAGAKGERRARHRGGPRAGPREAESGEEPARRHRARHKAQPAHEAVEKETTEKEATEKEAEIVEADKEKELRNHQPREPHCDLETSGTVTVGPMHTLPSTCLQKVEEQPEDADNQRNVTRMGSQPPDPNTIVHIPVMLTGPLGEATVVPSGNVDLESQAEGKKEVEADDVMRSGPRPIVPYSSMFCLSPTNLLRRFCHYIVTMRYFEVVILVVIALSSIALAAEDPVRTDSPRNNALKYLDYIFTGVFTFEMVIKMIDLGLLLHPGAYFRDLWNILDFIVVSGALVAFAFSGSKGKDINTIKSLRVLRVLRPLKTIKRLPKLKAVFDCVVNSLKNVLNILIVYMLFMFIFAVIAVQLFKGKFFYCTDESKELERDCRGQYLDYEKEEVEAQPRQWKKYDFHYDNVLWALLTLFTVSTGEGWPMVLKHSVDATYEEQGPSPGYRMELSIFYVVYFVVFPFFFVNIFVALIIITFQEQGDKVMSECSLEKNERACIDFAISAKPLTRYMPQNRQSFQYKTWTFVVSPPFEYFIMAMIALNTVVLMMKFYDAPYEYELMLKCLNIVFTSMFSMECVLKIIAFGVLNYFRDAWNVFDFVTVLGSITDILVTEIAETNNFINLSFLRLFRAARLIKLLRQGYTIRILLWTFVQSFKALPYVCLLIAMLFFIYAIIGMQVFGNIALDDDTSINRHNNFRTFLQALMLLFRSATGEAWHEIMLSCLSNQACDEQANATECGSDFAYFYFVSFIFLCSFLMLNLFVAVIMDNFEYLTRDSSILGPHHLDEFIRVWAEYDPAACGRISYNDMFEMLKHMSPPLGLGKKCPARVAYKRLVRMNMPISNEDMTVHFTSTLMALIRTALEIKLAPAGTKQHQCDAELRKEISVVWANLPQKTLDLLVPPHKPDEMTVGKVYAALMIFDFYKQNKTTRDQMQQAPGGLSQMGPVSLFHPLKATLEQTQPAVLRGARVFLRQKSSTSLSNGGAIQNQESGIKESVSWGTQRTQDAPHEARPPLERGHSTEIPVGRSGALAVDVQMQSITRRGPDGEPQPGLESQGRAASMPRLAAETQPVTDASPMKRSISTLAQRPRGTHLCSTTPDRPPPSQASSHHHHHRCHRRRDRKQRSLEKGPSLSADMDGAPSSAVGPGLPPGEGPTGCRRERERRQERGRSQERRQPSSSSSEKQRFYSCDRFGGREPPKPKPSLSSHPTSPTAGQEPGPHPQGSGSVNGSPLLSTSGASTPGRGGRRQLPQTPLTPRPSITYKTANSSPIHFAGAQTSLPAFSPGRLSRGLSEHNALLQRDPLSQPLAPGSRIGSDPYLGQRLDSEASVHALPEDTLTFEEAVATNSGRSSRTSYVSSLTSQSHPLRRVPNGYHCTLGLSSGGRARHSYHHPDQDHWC
T4 sequence (Q02410 whole entry): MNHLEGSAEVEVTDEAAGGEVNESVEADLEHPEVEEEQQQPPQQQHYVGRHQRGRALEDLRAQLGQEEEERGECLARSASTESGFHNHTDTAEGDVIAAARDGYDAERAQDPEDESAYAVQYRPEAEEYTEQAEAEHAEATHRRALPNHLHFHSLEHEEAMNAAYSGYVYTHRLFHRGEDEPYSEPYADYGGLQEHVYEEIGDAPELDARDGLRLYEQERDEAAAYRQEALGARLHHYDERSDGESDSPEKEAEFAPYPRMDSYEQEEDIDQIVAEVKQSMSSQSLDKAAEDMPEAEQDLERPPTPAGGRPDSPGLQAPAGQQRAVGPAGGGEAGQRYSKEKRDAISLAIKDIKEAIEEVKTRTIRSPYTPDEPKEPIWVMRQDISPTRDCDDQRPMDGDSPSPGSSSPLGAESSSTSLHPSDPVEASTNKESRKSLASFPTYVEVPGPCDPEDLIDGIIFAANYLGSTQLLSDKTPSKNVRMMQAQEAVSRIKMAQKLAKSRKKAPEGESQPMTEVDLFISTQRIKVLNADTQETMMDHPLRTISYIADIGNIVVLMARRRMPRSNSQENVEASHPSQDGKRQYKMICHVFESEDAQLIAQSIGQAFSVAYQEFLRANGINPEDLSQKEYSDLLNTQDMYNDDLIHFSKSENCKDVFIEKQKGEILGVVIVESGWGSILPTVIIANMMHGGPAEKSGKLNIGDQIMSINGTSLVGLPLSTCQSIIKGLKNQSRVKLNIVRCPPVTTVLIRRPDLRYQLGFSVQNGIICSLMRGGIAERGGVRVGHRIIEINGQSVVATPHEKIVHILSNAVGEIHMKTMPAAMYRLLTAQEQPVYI

The IC50 is the midpoint of a concentration-inhibition curve. Consider `O=S(=O)(Nc1cccnc1)c1cc(Cl)ccc1F`, for which the IC50 was > 100 µM (not active) in [1] and 46.5 µM (active) in data set [2].

On to `CC(C)c1ccc(NC(=O)CSc2nc(=O)n(CCCN3CCOCC3)c3c2CCC3)cc1`, for which the IC50 in data set [3] was 13.8 µM (active). As usually defined, the AC50 is the concentration at which the activity in the assay is half-maximal. Regarding `CCOC(=O)CCc1ccc(NC(=O)/C=C/c2ccc([N+](=O)[O-])o2)cc1`, the AC50 in data set [4] was 6.83 µM (active). Turning to `Nc1ccccc1C(=O)NCC1(c2ccccc2)CCCC1`, the AC50 in the data set with Escherichia coli is 113 µM (active).

For `O=S(=O)(Nc1ccccc1Br)c1cnc2ccccc2c1`, the IC50 in data set [1] is > 10 µM (inconclusive); in [2], > 10 µM (inactive). Take `O=C(O)CCCNC(=O)/C=C/c1ccco1`: the IC50 in data set [5] is 17.1 µM (active); in data set [6] it was 13.6 µM (active); at Genome polyprotein, > 100 µM (active); in data set [7], 151 µM (active).

As to `COc1ccc(NC(=O)CCNS(=O)(=O)c2ccc3c(c2)c(=O)n(C)c(=O)n3C)cc1`, the AC50 entry on Cytochrome P450 3A4 and on Cytochrome P450 2C9 was “inconclusive” throughout. With `NC(=O)c1c(NC(=O)C(=O)N2CCOCC2)sc2c1CCC2`, the AC50 with Escherichia coli is 23.9 µM (active).

`CCOC(=O)N1CCN(C(=O)CCCn2c(=S)[nH]c3ccsc3c2=O)CC1`: the IC50 in [3] is 12.3 µM (active).

For the compound `COC1=C(Nc2ccc(C)cc2)C(=O)c2ccccc2C1=O`, the IC50 on Nonstructural protein 1 was 10 µM (active). As to `CN(C(=O)/C=C/c1ccc([N+](=O)[O-])s1)c1ccccc1`, the AC50 in [4] is 9.11 µM (active). Consider `CCCCN(C)C(=O)NC1(C(F)(F)F)Oc2ccccc2O1`, for which the IC50 in [8] and in data set [2] was > 100 µM (inactive) in each case. With `O=C(NCCO)c1cc(-c2cc(F)c(Cl)cc2Cl)n[nH]1`, the IC50 is > 100 µM (not active) in data set [1] and > 25 µM (inactive) in [8]. Regarding `Nc1nc(=O)n([C@H]2C[C@H](O)[C@@H](CO)O2)cc1F`, the AC50 in the data set with Escherichia coli was 33.8 µM (active). As for `COC(=O)c1cc(C(=O)c2ccc(Cl)cc2Cl)cn1C`, the AC50 result on Cytochrome P450 3A4 and on Cytochrome P450 2C9 was “inconclusive” throughout. Take `O=C(NC1(C(F)(F)F)Oc2ccc(Cl)cc2O1)N1CCC2(CC1)OCCO2` (stereo not drawn): the IC50 in [8] was 9.93 µM (active). In the case of `C/C=C\C(=O)N(CC)c1ccccc1C`, the AC50 result on Cytochrome P450 3A4 is given as “inconclusive”. Consider `CCOC(=O)N1CCN(C(=O)c2ccc3nc(N4CCC(C)CC4)sc3c2)CC1`, for which the AC50 at Cytochrome P450 2C19 is 11.2 µM (inconclusive); on Cytochrome P450 2D6 it was 28.2 µM (inconclusive); on Cytochrome P450 3A4, “inconclusive”. For the compound `COc1ccccc1NC(=O)CSc1nn2c(=O)c(C)nnc2s1`, the IC50 at Nonstructural protein 1 is 16.1 µM (active). Consider `Cc1cc(NS(=O)(=O)c2ccc(NC(=O)COc3c(C)cc(Br)cc3C)cc2)no1`, for which the IC50 in [3] is 13.2 µM (active). In the case of `O=C(CSc1nc2ccccc2s1)c1ccc(O)c(O)c1`, the results for the IC50 in [8] and in data set [2] were 3.42 µM (active) and 3.03 µM (active), respectively.

In the case of `CCOC(=O)Cn1nc(C)n(-c2ccc(C)cc2)c1=O`, the results for the AC50 on Cytochrome P450 2C19 and on Cytochrome P450 3A4 were 28.2 µM (inconclusive) and “inconclusive”, respectively.

Take `Cc1cccc(C)c1OCc1nnc2c3cnn(-c4ccccc4)c3ncn12`: the values for the IC50 in [1], in data set [8] and in data set [2] were > 100 µM (not active), > 100 µM (inactive) and > 100 µM (inactive), respectively.
